# Assay results taken from US20230085307A1, “PYRIDAZINONE COMPOUND AND HERBICIDE” (NISSAN CHEMICAL CORPORATION, priority 2019, published 2023).
# Tested on: wild oat
# Assay: Test Example 5: herbicidal effect by foliage application, plastic box (Table 20, symbol I)
# Assay type: in vivo, wild oat (Avena fatua)
# Details: 320 g/ha, foliage application after 14-day growth, evaluated three weeks after application
# In short: (§1)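 Foliar spray test: emulsion formulation diluted in water to a set application rate, sprayed onto 14-day-old plants raised in diluvial soil at 25° C to 30° C under glass. Both herbicidal effect and crop effect rated visually three weeks later.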
row,SMILES,herbicidal effect on I: wild oat (evaluation grade 0-5)
1,Cc1nn(C)c(=O)c(-c2c(-c3ccc(C(F)(F)F)cc3)sc3c(Cl)cccc23)c1O [4-029],0 (Herbicidal rate of 5% or less (almost no effect))

# Tested on: lambsquarters
# Assay: Test Example 5: herbicidal effect by foliage application, plastic box (Table 20, symbol O)
# Assay type: in vivo, lambsquarters (Chenopodium album)
# Details: 320 g/ha, foliage application after 14-day growth, evaluated three weeks after application
# In short: as §1
row,SMILES,herbicidal effect on O: lambsquarters (evaluation grade 0-5)
1,Cc1nn(C)c(=O)c(-c2c(-c3ccc(C(F)(F)F)cc3)sc3c(Cl)cccc23)c1O [4-029],3 (Herbicidal rate of 40% or more and less than 70%)

# Tested on: southern crabgrass
# Assay: Test Example 5: herbicidal effect by foliage application, plastic box (Table 20, symbol F)
# Assay type: in vivo, southern crabgrass (Digitaria ciliaris)
# Details: 320 g/ha, foliage application after 14-day growth, evaluated three weeks after application
# In short: as §1
row,SMILES,herbicidal effect on F: southern crabgrass (evaluation grade 0-5)
1,Cc1nn(C)c(=O)c(-c2c(-c3ccc(C(F)(F)F)cc3)sc3c(Cl)cccc23)c1O [4-029],0 (Herbicidal rate of 5% or less (almost no effect))

# Tested on: green foxtail
# Assay: Test Example 5: herbicidal effect by foliage application, plastic box (Table 20, symbol G)
# Assay type: in vivo, green foxtail (Setaria viridis)
# Details: 320 g/ha, foliage application after 14-day growth, evaluated three weeks after application
# In short: as §1
row,SMILES,herbicidal effect on G: green foxtail (evaluation grade 0-5)
1,Cc1nn(C)c(=O)c(-c2c(-c3ccc(C(F)(F)F)cc3)sc3c(Cl)cccc23)c1O [4-029],0 (Herbicidal rate of 5% or less (almost no effect))

# Tested on: Italian ryegrass
# Assay: Test Example 5: herbicidal effect by foliage application, plastic box (Table 20, symbol K)
# Assay type: in vivo, Italian ryegrass (Lolium multiflorum)
# Details: 320 g/ha, foliage application after 14-day growth, evaluated three weeks after application
# In short: as §1
row,SMILES,herbicidal effect on K: Italian ryegrass (evaluation grade 0-5)
1,Cc1nn(C)c(=O)c(-c2c(-c3ccc(C(F)(F)F)cc3)sc3c(Cl)cccc23)c1O [4-029],0 (Herbicidal rate of 5% or less (almost no effect))

# Tested on: windgrass
# Assay: Test Example 5: herbicidal effect by foliage application, plastic box (Table 20, symbol L)
# Assay type: in vivo, windgrass (Apera spica-venti)
# Details: 320 g/ha, foliage application after 14-day growth, evaluated three weeks after application
# In short: as §1
row,SMILES,herbicidal effect on L: windgrass (evaluation grade 0-5)
1,Cc1nn(C)c(=O)c(-c2c(-c3ccc(C(F)(F)F)cc3)sc3c(Cl)cccc23)c1O [4-029],4 (Herbicidal rate of 70% or more and less than 90%)

# Tested on: barnyard grass
# Assay: Test Example 5: herbicidal effect by foliage application, plastic box (Table 20, symbol H)
# Assay type: in vivo, barnyard grass (Echinochloa crus-galli)
# Details: 320 g/ha, foliage application after 14-day growth, evaluated three weeks after application
# In short: as §1
row,SMILES,herbicidal effect on H: barnyard grass (evaluation grade 0-5)
1,Cc1nn(C)c(=O)c(-c2c(-c3ccc(C(F)(F)F)cc3)sc3c(Cl)cccc23)c1O [4-029],0 (Herbicidal rate of 5% or less (almost no effect))

# Tested on: chickweed
# Assay: Test Example 5: herbicidal effect by foliage application, plastic box (Table 20, symbol P)
# Assay type: in vivo, common chickweed (Stellaria media)
# Details: 320 g/ha, foliage application after 14-day growth, evaluated three weeks after application
# In short: as §1
row,SMILES,herbicidal effect on P: chickweed (evaluation grade 0-5)
1,Cc1nn(C)c(=O)c(-c2c(-c3ccc(C(F)(F)F)cc3)sc3c(Cl)cccc23)c1O [4-029],5 (Herbicidal rate of 90% or more (almost completely withered))

# Tested on: rice flat sedge
# Assay: Test Example 3: herbicidal effect by foliage application, Wagner pot (Table 18, symbol E)
# Assay type: in vivo, rice flat sedge (Cyperus iria)
# Details: 320 g/ha
# In short: (§2)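 Plants were sown in alluvial soil held under 0.1–0.5 cm standing water and grown 14 days in a greenhouse at 25–30 °C. An emulsifiable formulation, water-diluted to the set dose, was then sprayed onto the foliage, and effects were scored three weeks later using previously defined criteria.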
row,SMILES,herbicidal effect on rice flat sedge (E)
1,Cc1nn(C)c(=O)c(-c2c(-c3ccc(C(F)(F)F)cc3)sc3c(Cl)cccc23)c1O [4-029],0 (Herbicidal rate of 5% or less (almost no effect))

# Tested on: barnyard grass
# Assay: Test Example 3: herbicidal effect by foliage application, Wagner pot (Table 18, symbol H)
# Assay type: in vivo, barnyard grass (Echinochloa crus-galli)
# Details: 320 g/ha
# In short: as §2
row,SMILES,herbicidal effect on barnyard grass (H)
1,Cc1nn(C)c(=O)c(-c2c(-c3ccc(C(F)(F)F)cc3)sc3c(Cl)cccc23)c1O [4-029],3 (Herbicidal rate of 40% or more and less than 70%)

# Tested on: velvetleaf
# Assay: Test Example 5: herbicidal effect by foliage application, plastic box (Table 20, symbol M)
# Assay type: in vivo, velvetleaf (Abutilon theophrasti)
# Details: 320 g/ha, foliage application after 14-day growth, evaluated three weeks after application
# In short: as §1
row,SMILES,herbicidal effect on M: velvetleaf (evaluation grade 0-5)
1,Cc1nn(C)c(=O)c(-c2c(-c3ccc(C(F)(F)F)cc3)sc3c(Cl)cccc23)c1O [4-029],0 (Herbicidal rate of 5% or less (almost no effect))

# Tested on: Chinese sprangletop
# Assay: Test Example 3: herbicidal effect by foliage application, Wagner pot (Table 18, symbol D)
# Assay type: in vivo, chinese sprangletop (Leptochloa chinensis)
# Details: 320 g/ha
# In short: as §2
row,SMILES,herbicidal effect on Chinese sprangletop (D)
1,Cc1nn(C)c(=O)c(-c2c(-c3ccc(C(F)(F)F)cc3)sc3c(Cl)cccc23)c1O [4-029],0 (Herbicidal rate of 5% or less (almost no effect))

# Tested on: persian speedwell
# Assay: Test Example 5: herbicidal effect by foliage application, plastic box (Table 20, symbol R)
# Assay type: in vivo, Persian speedwell (Veronica persica)
# Details: 320 g/ha, foliage application after 14-day growth, evaluated three weeks after application
# In short: as §1
row,SMILES,herbicidal effect on R: persian speedwell (evaluation grade 0-5)
1,Cc1nn(C)c(=O)c(-c2c(-c3ccc(C(F)(F)F)cc3)sc3c(Cl)cccc23)c1O [4-029],0 (Herbicidal rate of 5% or less (almost no effect))

# Tested on: redroot pigweed
# Assay: Test Example 5: herbicidal effect by foliage application, plastic box (Table 20, symbol N)
# Assay type: in vivo, redroot pigweed (Amaranthus retroflexus)
# Details: 320 g/ha, foliage application after 14-day growth, evaluated three weeks after application
# In short: as §1
row,SMILES,herbicidal effect on N: redroot pigweed (evaluation grade 0-5)
1,Cc1nn(C)c(=O)c(-c2c(-c3ccc(C(F)(F)F)cc3)sc3c(Cl)cccc23)c1O [4-029],0 (Herbicidal rate of 5% or less (almost no effect))

# Tested on: blackgrass
# Assay: Test Example 5: herbicidal effect by foliage application, plastic box (Table 20, symbol J)
# Assay type: in vivo, blackgrass (Alopecurus myosuroides)
# Details: 320 g/ha, foliage application after 14-day growth, evaluated three weeks after application
# In short: as §1
row,SMILES,herbicidal effect on J: blackgrass (evaluation grade 0-5)
1,Cc1nn(C)c(=O)c(-c2c(-c3ccc(C(F)(F)F)cc3)sc3c(Cl)cccc23)c1O [4-029],0 (Herbicidal rate of 5% or less (almost no effect))
